# ChEMBL document CHEMBL1201862, “PubChem BioAssay data set” (2004)
#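 Method: 48-hour compound exposure of cells in 96-well plates, five concentrations, linear interpolation of endpoints. GI50: concentration for 50% inhibition of growth.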 Calls of active or inactive are those of the source. No stated cut-off is given here; in the data, active = GI50 up to about 1.1 µM and inactive = higher.
# Tests used:
# Test in all cases: NCI anticancer screen, dose series, 48 h
# [1] = test system: RPMI-8226
# [2] = test system: SF-539
# [3] = test system: UO-31
# [4] = test system: OVCAR-4
# [5] = test system: NCI-H226
# [6] = test system: M14
# [7] = test system: COLO 205
# [8] = test system: SF-295
# [9] = test system: HCT-15
# [10] = test system: IGROV-1
# [11] = test system: HCC 2998
# [12] = test system: ACHN
# [13] = test system: NCI-H460
# [14] = test system: DLD-1
# [15] = test system: UACC-257
# [16] = test system: U-251
# [17] = test system: CCRF-CEM
# [18] = test system: 786-0
# [19] = test system: KM12
# [20] = test system: TK-10
# [21] = test system: LXFL 529
# [22] = test system: OVCAR-5
# [23] = test system: A498
# [24] = test system: UACC-62
# [25] = test system: SW-620
# [26] = test system: MOLT-4
# [27] = test system: SN12C
# [28] = test system: KM-20L2
# [29] = test system: NCI-H23
# [30] = test system: LOX IMVI
# [31] = test system: K562
# [32] = test system: DMS-273
# [33] = test system: SF-268
# [34] = test system: OVCAR-3
# [35] = test system: SK-MEL-2
# [36] = test system: DMS-114
# [37] = test system: HCT-116
# [38] = test system: HOP-62
# [39] = test system: EKVX
# [40] = test system: CAKI-1
# [41] = test system: SNB-75
# [42] = test system: SK-MEL-28
# [43] = test system: OVCAR-8
# [44] = test system: HL-60
# [45] = test system: HT-29
# [46] = test system: A549
# [47] = test system: SR
# [48] = test system: SNB-19
# [49] = test system: RXF 393
# [50] = test system: SNB-78
# [51] = test system: BT-549
# [52] = test system: T47D
# [53] = test system: PC-3
# [54] = test system: MDA-N
# [55] = test system: MDA-MB-231
# [56] = test system: NCI/ADR-RES
# [57] = test system: DU-145
# [58] = test system: MDA-MB-435
# [59] = test system: MCF7
# [60] = test system: Hs-578T
# [61] = test system: Malme-3M
# [62] = test system: NCI-H522
# [63] = test system: M19-MEL
# [64] = test system: SK-MEL-5
# [65] = test system: SK-OV-3
# [66] = test system: HOP-92
smiles,measurement,setting,value
CCOC(=O)c1cnc2cc3cccccc3n2c1=O,GI50,[1],> 100 µM (inactive)
same,GI50,[2],> 100 µM (inactive)
same,GI50,[3],> 100 µM (inactive)
same,GI50,[4],> 100 µM (inactive)
same,GI50,[5],> 100 µM (inactive)
same,GI50,[6],> 100 µM (inactive)
same,GI50,[7],> 100 µM (inactive)
same,GI50,[8],> 100 µM (inactive)
same,GI50,[9],> 100 µM
same,GI50,[10],> 100 µM (inactive)
same,GI50,[11],> 100 µM (inactive)
same,GI50,[12],> 100 µM (inactive)
same,GI50,[13],> 100 µM (inactive)
same,GI50,[14],> 100 µM (inactive)
same,GI50,[15],> 100 µM (inactive)
same,GI50,[16],> 100 µM (inactive)
same,GI50,[17],> 100 µM (inactive)
same,GI50,[18],> 100 µM (inactive)
same,GI50,[19],60.7 µM (inactive)
same,GI50,[20],> 100 µM (inactive)
same,GI50,[21],> 100 µM (inactive)
same,GI50,[22],> 100 µM (inactive)
same,GI50,[23],> 100 µM (inactive)
same,GI50,[24],> 100 µM (inactive)
same,GI50,[25],> 100 µM (inactive)
same,GI50,[26],> 100 µM (inactive)
same,GI50,[27],> 100 µM (inactive)
same,GI50,[28],> 100 µM (inactive)
same,GI50,[29],> 100 µM (inactive)
same,GI50,[30],> 100 µM (inactive)
same,GI50,[31],> 100 µM (inactive)
same,GI50,[32],31.8 µM (inactive)
same,GI50,[33],> 100 µM (inactive)
same,GI50,[34],> 100 µM (inactive)
same,GI50,[35],> 100 µM (inactive)
same,GI50,[36],35 µM (inactive)
same,GI50,[37],39.3 µM (inactive)
same,GI50,[38],> 100 µM (inactive)
same,GI50,[39],> 100 µM (inactive)
same,GI50,[40],> 100 µM (inactive)
same,GI50,[41],97.5 µM (inactive)
same,GI50,[42],> 100 µM (inactive)
same,GI50,[43],> 100 µM (inactive)
same,GI50,[44],> 100 µM (inactive)
same,GI50,[45],> 100 µM (inactive)
same,GI50,[46],> 100 µM (inactive)
same,GI50,[47],45 µM (inactive)
same,GI50,[48],> 100 µM (inactive)
same,GI50,[49],> 100 µM (inactive)
same,GI50,[50],> 100 µM (inactive)
C/C(=N\N)C(CN1CCOCC1)C(c1ccccc1)c1c(O)c2ccccc2oc1=O (stereo not given),GI50,[1],> 67.1 µM (inactive)
same,GI50,[2],> 100 µM (inactive)
same,GI50,[3],44.3 µM (inactive)
same,GI50,[4],77.3 µM (inactive)
same,GI50,[5],> 100 µM (inactive)
same,GI50,[6],> 76.6 µM (inactive)
same,GI50,[7],> 44.8 µM (inactive)
same,GI50,[8],> 100 µM (inactive)
same,GI50,[9],> 100 µM
same,GI50,[10],> 100 µM (inactive)
same,GI50,[11],> 100 µM (inactive)
same,GI50,[12],> 100 µM (inactive)
same,GI50,[13],> 80.7 µM (inactive)
same,GI50,[14],> 100 µM (inactive)
same,GI50,[15],> 100 µM (inactive)
same,GI50,[16],> 76.9 µM (inactive)
same,GI50,[17],23.3 µM (inactive)
same,GI50,[18],> 95.1 µM (inactive)
same,GI50,[19],> 81.1 µM (inactive)
same,GI50,[20],> 100 µM (inactive)
same,GI50,[21],> 100 µM (inactive)
same,GI50,[22],> 100 µM (inactive)
same,GI50,[23],69.8 µM (inactive)
same,GI50,[25],> 100 µM (inactive)
same,GI50,[51],32.3 µM (inactive)
same,GI50,[26],40.5 µM (inactive)
same,GI50,[52],12.4 µM (inactive)
same,GI50,[53],> 100 µM (inactive)
same,GI50,[54],> 100 µM (inactive)
same,GI50,[55],91 µM (inactive)
same,GI50,[27],> 100 µM (inactive)
same,GI50,[28],> 100 µM (inactive)
same,GI50,[56],65.9 µM (inactive)
same,GI50,[29],> 100 µM (inactive)
same,GI50,[30],26.4 µM (inactive)
same,GI50,[31],47.6 µM (inactive)
same,GI50,[57],> 100 µM (inactive)
same,GI50,[58],53.7 µM (inactive)
same,GI50,[32],> 100 µM (inactive)
same,GI50,[33],> 100 µM (inactive)
same,GI50,[59],56 µM (inactive)
same,GI50,[34],> 61.4 µM (inactive)
same,GI50,[60],> 100 µM (inactive)
same,GI50,[61],> 64.7 µM (inactive)
same,GI50,[35],> 100 µM (inactive)
same,GI50,[62],> 52 µM (inactive)
same,GI50,[36],> 100 µM (inactive)
same,GI50,[37],> 100 µM (inactive)
same,GI50,[63],> 100 µM (inactive)
same,GI50,[38],> 91 µM (inactive)
same,GI50,[39],83.6 µM (inactive)
same,GI50,[40],> 100 µM (inactive)
same,GI50,[64],> 64.9 µM (inactive)
same,GI50,[41],42.9 µM (inactive)
same,GI50,[42],> 100 µM (inactive)
same,GI50,[43],> 90.6 µM (inactive)
same,GI50,[44],30.4 µM (inactive)
same,GI50,[45],> 100 µM (inactive)
same,GI50,[46],> 75.2 µM (inactive)
same,GI50,[65],> 100 µM (inactive)
same,GI50,[47],46 µM (inactive)
same,GI50,[66],26.3 µM (inactive)
same,GI50,[48],> 100 µM (inactive)
same,GI50,[49],3.38 µM (inactive)
same,GI50,[50],> 100 µM (inactive)
